Data published in EP0293826A2, “Therapeutic and prophylactic application of sulfated polysaccharides against AIDS” (priority 1987, dated 1988).

System: human immuno deficiency virus (HIV)
Assay: not given
Settings: cited from earlier work

Compound | concentration completely protecting ATH8 cells against the cytopathogenicity of HIV
Cc1cn([C@H]2C[C@H](N=[N+]=[N-])[C@@H](CO)O2)c(=O)[nH]c1=O [AZT, 3 -azido-2',3 -dideoxythymidine] | 1-5 µ.M
Cc1ccc(C(=O)Nc2ccc(S(=O)(=O)O)c3cc(S(=O)(=O)O)cc(S(=O)(=O)O)c23)cc1NC(=O)c1cccc(NC(=O)Nc2cccc(C(=O)Nc3cc(C(=O)Nc4ccc(S(=O)(=O)O)c5cc(S(=O)(=O)O)cc(S(=O)(=O)O)c45)ccc3C)c2)c1 [suramin] | 50 µg/mL
Cc1cc(-c2ccc(/N=N/c3ccc4c(S(=O)(=O)O)cc(S(=O)(=O)O)c(N)c4c3O)c(C)c2)ccc1/N=N/c1ccc2c(S(=O)(=O)O)cc(S(=O)(=O)O)c(N)c2c1O [Evans Blue] | 25 µg/mL

System: HIV-1
Assay: Inhibition of HIV-1 replication in MT-4 cells (trypan blue exclusion, day 5)
Type: cell-based
Settings: not given
Method: MT-4 cells were suspended at 5 x 10^s cells per ml and infected with HIV-1 at 1000 CCIDso per ml (1 CCIDso being the 50% cell culture infective dose). After 2 h-incubation at 37° C, 5 x 10^4 cells per 100 µl were brought into each well of a flat-bottomed 96-well plastic microtiter tray containing 100 µl of various dilutions of the test compounds. After 5 days incubation at 37° C, the number of viable cells was determined microscopically in an hemacytometer by trypan blue exclusion. Anti-HIV-1 activity of the compounds was also determined by monitoring viral antigen expression in HUT-78 cells at day 14 after infection, measured by indirect immunifluorescence, using a polyclonal antibody as probe.

Compound | concentration at which no anti-HIV-1 activity was shown [µg/mL]
glucosamine-2,3-disulfate [glucosamine 2,3-disulfate] | > 125
glucosamine-2-sulfate [glucosamine 2-sulfate] | > 125
N[C@H]1C(O)O[C@H](COS(=O)(=O)O)[C@@H](O)[C@@H]1O (stereo partly shown) [glucosamine 6-sulfate, glucosamine-6-sulfate] | > 125
N[C@H]1C(O)O[C@H](CO)[C@@H](O)[C@@H]1OS(=O)(=O)O (stereo partly shown) [glucosamine 3-sulfate, glucosamine-3-sulfate] | > 125
